Measurements from US8980926B2, “2-aminoindole compounds and methods for the treatment of malaria” (Genzyme Corporation, priority 2009, dated 2015).

test system: not listed separately; experiment: Mammalian cytotoxicity, kidney epithelial; type: cell-based; conditions: normal human renal proximal tubule cells; read-out: Selectivity, Mammalian cytotoxicity (IC50; μM) Kidney epithelial

Compound | IC50
NC1=Nc2ccc(Cl)cc2C1(O)c1cccc2ccccc12 (stereo not drawn) [Compound 11] | 24 µM
NC1=Nc2ccc(Cl)cc2C1(O)Cc1ccccc1 (stereo not drawn) [Compound 38] | > 62.5 µM

test system: P. falciparum strain 3D7; experiment: In vitro potency against P. falciparum strain 3D7 (SYBR green/DAPI); type: cell-based; conditions: Plasmodium falciparum, read-out: Potency (IC50; nM) Plasmodium spp. Pf 3D7

IC50 | Compound
30 nM | NC1=Nc2ccc(Cl)cc2C1(O)c1cccc2ccccc12 (stereo not drawn) [Compound 11]
38 nM | NC1=Nc2ccc(Cl)cc2C1(O)Cc1ccccc1 (stereo not drawn) [Compound 38]

same assay, conditions: Plasmodium falciparum, reductions in parasitemia, read-out: IC50 values

IC50 | Compound
1 to 100 nM | NC1=Nc2ccc(Cl)cc2C1(O)c1cccc2ccccc12 (stereo not drawn) [Compound 11]
1 to 100 nM | NC1=Nc2ccc(Cl)cc2C1(O)Cc1ccccc1 (stereo not drawn) [Compound 38]
100 to 500 nM | CC(C)(C)Sc1ccc(F)c(C2(O)C(N)=Nc3ccc(Cl)cc32)c1 (stereo not drawn) [Compound 188]
1 to 100 nM | NC1=Nc2ccc(Cl)cc2C1(O)c1cc(Cl)ccc1SC1CCC1 (stereo not drawn) [Compound 189]
1 to 100 nM | COc1ccc(SC(C)C)c(C2(O)C(N)=Nc3ccc(Cl)cc32)c1 (stereo not drawn) [Compound 190]
1 to 100 nM | CCOc1ccc(OC)cc1C1(O)C(N)=Nc2ccccc21 (stereo not drawn) [Compound 191]
1 to 100 nM | CN(C)c1ccc(F)cc1C1(O)C(N)=Nc2ccc(Cl)cc21 (stereo not drawn) [Compound 192]
1 to 100 nM | CC(C)(C)Sc1ccccc1C1(O)C(N)=Nc2ccc(Cl)cc21 (stereo not drawn) [Compound 193]
1 to 100 nM | CC(C)(C)Oc1ccc(F)cc1C1(O)C(N)=Nc2ccc(Cl)cc21 (stereo not drawn) [Compound 194]
1 to 100 nM | COc1ccc(OC2CCC2)c(C2(O)C(N)=Nc3ccccc32)c1 (stereo not drawn) [Compound 195]
1 to 100 nM | CCSc1ccc(OC)cc1C1(O)C(N)=Nc2ccc(Cl)cc21 (stereo not drawn) [Compound 196]
100 to 500 nM | NC1=Nc2ccc(Cl)cc2C1(O)C1CCC1 (stereo not drawn) [Compound 197]
100 to 500 nM | NC1=Nc2ccc(Cl)cc2C1(O)c1cc(F)ccc1F (stereo not drawn) [Compound 198]
1 to 100 nM | NC1=Nc2ccc(Cl)cc2C1(O)c1cc(F)ccc1SC1CC1 (stereo not drawn) [Compound 199]
1 to 100 nM | NC1=Nc2ccc(Cl)cc2C1(O)c1cc(F)ccc1C1CC1 (stereo not drawn) [Compound 200]
1 to 100 nM | COc1cnc(OC)c(C2(O)C(N)=Nc3ccc(Cl)cc32)c1 (stereo not drawn) [Compound 201]
1 to 100 nM | CSc1ccc(F)cc1C1(O)C(N)=Nc2ccc(Cl)cc21 (stereo not drawn) [Compound 203]
1 to 100 nM | CSc1ccc(F)c(C2(O)C(N)=Nc3ccc(Cl)cc32)c1 (stereo not drawn) [Compound 204]
1 to 100 nM | NC1=Nc2ccc(Cl)cc2C1(O)c1ccccc1C1CC1 (stereo not drawn) [Compound 205]
100 to 500 nM | Cc1csc2c(CC3(O)C(N)=Nc4ccc(Cl)cc43)cccc12 (stereo not drawn) [Compound 206]
100 to 500 nM | COc1cnc(F)c(C2(O)C(N)=Nc3ccc(Cl)cc32)c1 (stereo not drawn) [Compound 207]

IC50 | Compound
1 to 100 nM | CC(C)Oc1ccc(F)c(C2(O)C(N)=Nc3ccc(Cl)cc32)c1 (stereo not drawn) [Compound 208]
1 to 100 nM | CCOc1ccc(F)c(C2(O)C(N)=Nc3ccc(Cl)cc32)c1 (stereo not drawn) [Compound 209]
1 to 100 nM | CCOc1cnc(OC)cc1C1(O)C(N)=Nc2ccc(Cl)cc21 (stereo not drawn) [Compound 210]
1 to 100 nM | CCOc1cnc(OC)c(C2(O)C(N)=Nc3ccc(Cl)cc32)c1 (stereo not drawn) [Compound 211]
1 to 100 nM | COc1ccc(C2CC2)c(C2(O)C(N)=Nc3ccc(Cl)cc32)c1 (stereo not drawn) [Compound 212]
1 to 100 nM | NC1=Nc2ccc(Cl)cc2C1(O)c1cc(F)ccc1OC1CCOCC1 (stereo not drawn) [Compound 213]
1 to 100 nM | NC1=Nc2ccc(Cl)cc2C1(O)c1ccccc1N1CCSCC1 (stereo not drawn) [Compound 214]
1 to 100 nM | CC(C)Oc1cc(F)ccc1C1(O)C(N)=Nc2ccc(Cl)cc21 (stereo not drawn) [Compound 215]
1 to 100 nM | NC1=Nc2ccc(Cl)cc2C1(O)c1ccccc1OC1CC1 (stereo not drawn) [Compound 216]
1 to 100 nM | COc1cc(F)c(C2(O)C(N)=Nc3ccc(Cl)cc32)cc1OC (stereo not drawn) [Compound 217]
1 to 100 nM | CCCOc1cnc(OC)c(C2(O)C(N)=Nc3ccc(Cl)cc32)c1 (stereo not drawn) [Compound 218]
1 to 100 nM | NC1=Nc2ccc(Cl)cc2C1(O)c1cc(Cl)ccc1OC1CC1 (stereo not drawn) [Compound 219]
1 to 100 nM | CCCOc1cnc(OC)cc1C1(O)C(N)=Nc2ccc(Cl)cc21 (stereo not drawn) [Compound 220]
100 to 500 nM | COc1cnc(Cl)cc1C1(O)C(N)=Nc2ccc(Cl)cc21 (stereo not drawn) [Compound 221]
1 to 100 nM | CC(C)Oc1ccccc1[C@]1(O)C(N)=Nc2ccc(Cl)cc21 [Compound 222]
1 to 100 nM | CC(C)Oc1ccccc1[C@@]1(O)C(N)=Nc2ccc(Cl)cc21 [Compound 223]
1 to 100 nM | CCOc1cnc(Cl)cc1C1(O)C(N)=Nc2ccc(Cl)cc21 (stereo not drawn) [Compound 224]
1 to 100 nM | CCOc1cc(F)ccc1C1(O)C(N)=Nc2ccc(Cl)cc21 (stereo not drawn) [Compound 225]
100 to 500 nM | Cn1cc(F)c2c(C3(O)C(N)=Nc4ccc(Cl)cc43)cccc21 (stereo not drawn) [Compound 226]
100 to 500 nM | CC(C)C1(O)C(N)=Nc2cccc(Cl)c21 (stereo not drawn) [Compound 227]
1 to 100 nM | CCOc1cc(C2(O)C(N)=Nc3ccc(Cl)cc32)c(OC)cn1 (stereo not drawn) [Compound 228]

IC50 | Compound
100 to 500 nM | NC1=Nc2ccccc2C1(O)CC12CC3CC(CC(C3)C1)C2 (stereo not drawn) [Compound 229]
100 to 500 nM | CC(C)C1(O)C(N)=Nc2cc(Cl)ccc21 (stereo not drawn) [Compound 230]
100 to 500 nM | Cc1ccc2c(c1)C(O)(C(C)C)C(N)=N2 (stereo not drawn) [Compound 231]
1 to 100 nM | NC1=Nc2ccc(Cl)cc2C1(O)c1cc(F)ccc1OC1CC1 (stereo not drawn) [Compound 232]
100 to 500 nM | COc1cc(C2(O)C(N)=Nc3ccc(Cl)cc32)c(F)cn1 (stereo not drawn) [Compound 233]
1 to 100 nM | CCN(CC)c1ccccc1C1(O)C(N)=Nc2ccc(Cl)cc21 (stereo not drawn) [Compound 234]
100 to 500 nM | CN(C)c1ncccc1C1(O)C(N)=Nc2ccc(Cl)cc21 (stereo not drawn) [Compound 236]
1000 to 5000 nM | NC1=Nc2ccc(Cl)cc2C1(O)C#Cc1ccccc1 (stereo not drawn) [Compound 237]
1 to 100 nM | COc1ncc(Cl)cc1C1(O)C(N)=Nc2ccc(Cl)cc21 (stereo not drawn) [Compound 238]
100 to 500 nM | COc1ncccc1C1(O)C(N)=Nc2ccc(Cl)cc21 (stereo not drawn) [Compound 239]
100 to 500 nM | Cn1c(C2(O)C(N)=Nc3ccc(Cl)cc32)nc2cc(Br)ccc21 (stereo not drawn) [Compound 241]
1 to 100 nM | CCOc1ncc(Cl)cc1C1(O)C(N)=Nc2ccc(Cl)cc21 (stereo not drawn) [Compound 242]
1 to 100 nM | CCOc1cc(C2(O)C(N)=Nc3ccc(Cl)cc32)c(Cl)cn1 (stereo not drawn) [Compound 243]
1 to 100 nM | CCOc1ccc(Cl)cc1C1(O)C(N)=Nc2ccc(C)cc21 (stereo not drawn) [Compound 244]
1 to 100 nM | Cc1ccc2c(c1)C(O)(c1cc(Cl)ccc1OC(C)C)C(N)=N2 (stereo not drawn) [Compound 245]
100 to 500 nM | CC(C)[C@]1(O)C(N)=Nc2ccc(Cl)cc21 [Compound 246]
100 to 500 nM | CC(C)[C@@]1(O)C(N)=Nc2ccc(Cl)cc21 [Compound 247]
1 to 100 nM | CC(C)(C)Oc1ccccc1C1(O)C(N)=Nc2ccc(Cl)cc21 (stereo not drawn) [Compound 248]
1 to 100 nM | CCOc1ccc(F)cc1C1(O)C(N)=Nc2ccc(C)cc21 (stereo not drawn) [Compound 249]
1 to 100 nM | CCOc1cc(F)c(F)cc1C1(O)C(N)=Nc2ccc(Cl)cc21 (stereo not drawn) [Compound 250]
1 to 100 nM | CCOc1cc(F)ccc1C1(O)C(N)=Nc2ccc(C)cc21 (stereo not drawn) [Compound 251]

IC50 | Compound
1 to 100 nM | Cn1cc2cc(Cl)cc(C3(O)C(N)=Nc4ccc(Cl)cc43)c2n1 (stereo not drawn) [Compound 252]
1 to 100 nM | COc1ccc2c(c1)C(O)(c1cc(Cl)ccc1C1CC1)C(N)=N2 (stereo not drawn) [Compound 253]
1 to 100 nM | COc1cnc(OC)c(C2(O)C(N)=Nc3ccc(C)cc32)c1 (stereo not drawn) [Compound 254]
1 to 100 nM | CCOc1cc(F)c(F)cc1C1(O)C(N)=Nc2ccc(C)cc21 (stereo not drawn) [Compound 255]
1 to 100 nM | Cc1ccc2c(c1)C(O)(c1ccccc1C1CC1)C(N)=N2 (stereo not drawn) [Compound 256]
1 to 100 nM | Cc1ccc2c(c1)C(O)(c1cccc3ccccc13)C(N)=N2 (stereo not drawn) [Compound 257]
1 to 100 nM | Cn1ncc2cc(Cl)cc(C3(O)C(N)=Nc4ccc(Cl)cc43)c21 (stereo not drawn) [Compound 258]
1 to 100 nM | CCOc1cc(Cl)ccc1C1(O)C(N)=Nc2ccc(Cl)cc21 (stereo not drawn) [Compound 259]
100 to 500 nM | CCOc1ccc(C2(O)C(N)=Nc3ccc(Cl)cc32)c(Cl)c1 (stereo not drawn) [Compound 260]
1 to 100 nM | Cc1ccc2c(c1)C(O)(c1cc(Cl)ccc1OC(C)(C)C)C(N)=N2 (stereo not drawn) [Compound 261]
1 to 100 nM | Cc1ccc2c(c1)C(O)(c1cc(Cl)ccc1C1CC1)C(N)=N2 (stereo not drawn) [Compound 262]
1 to 100 nM | COc1cc(C2(O)C(N)=Nc3ccc(Cl)cc32)c2ccccc2n1 (stereo not drawn) [Compound 263]
100 to 500 nM | NC1=Nc2ccccc2C1(O)c1cc(F)cc2ccccc12 (stereo not drawn) [Compound 264]
1 to 100 nM | CCOc1cc(F)c(Cl)cc1C1(O)C(N)=Nc2ccc(C)cc21 (stereo not drawn) [Compound 265]
1 to 100 nM | Cc1ccc2c(c1)C(O)(c1cc(F)cc3ccccc13)C(N)=N2 (stereo not drawn) [Compound 268]
1 to 100 nM | COc1ccc2c(c1)C(O)(c1cc(F)cc3ccccc13)C(N)=N2 (stereo not drawn) [Compound 269]
1 to 100 nM | Cc1ccc2c(c1)C(O)(c1cc(Cl)cnc1N(C)C)C(N)=N2 (stereo not drawn) [Compound 270]
100 to 500 nM | COc1cc(C2(O)C(N)=Nc3ccc(Cl)cc32)c2c(cnn2C)c1 (stereo not drawn) [Compound 271]
100 to 500 nM | Cn1ccc2cc(F)cc(C3(O)C(N)=Nc4ccc(Cl)cc43)c21 (stereo not drawn) [Compound 272]
1 to 100 nM | Cc1ccc2c(c1)C(O)(c1cc(Cl)cc3ccccc13)C(N)=N2 (stereo not drawn) [Compound 273]

test system: Plasmodium falciparum strain Dd2; experiment: In vitro potency against P. falciparum strain Dd2; type: cell-based; conditions: read-out: Potency (IC50; nM) Plasmodium spp. Pf Dd2

IC50 | Compound
37 nM | NC1=Nc2ccc(Cl)cc2C1(O)c1cccc2ccccc12 (stereo not drawn) [Compound 11]
110 nM | NC1=Nc2ccc(Cl)cc2C1(O)Cc1ccccc1 (stereo not drawn) [Compound 38]

test system: not listed separately; experiment: Erythrocyte lysis; type: cell-based; conditions: erythrocytes, read-out: Selectivity, Mammalian cytotoxicity (IC50; μM) Eryth. Lysis

Compound | IC50
NC1=Nc2ccc(Cl)cc2C1(O)c1cccc2ccccc12 (stereo not drawn) [Compound 11] | > 129 µM
NC1=Nc2ccc(Cl)cc2C1(O)Cc1ccccc1 (stereo not drawn) [Compound 38] | > 147 µM

test system: not listed separately; experiment: Mammalian cytotoxicity, dermal fibroblast; type: cell-based; conditions: human, normal human dermal fibroblasts (Clonetics #CC-2509); read-out: Selectivity, Mammalian cytotoxicity (IC50; μM) Dermal Fibroblast

Compound | IC50
NC1=Nc2ccc(Cl)cc2C1(O)c1cccc2ccccc12 (stereo not drawn) [Compound 11] | 24 µM
NC1=Nc2ccc(Cl)cc2C1(O)Cc1ccccc1 (stereo not drawn) [Compound 38] | > 62.5 µM
